Drawing on patent publication US20100298381A1, “GAMMA SECRETASE MODULATORS” (Schering Corporation, priority 2007, published 2010), this text covers IC50 for 19 molecules.

Experiment [1] relates to total Aβ in HEK293 cells overexpressing APP with Swedish and London mutations. Nature of the experiment: Secretase reaction and Aβ analysis in whole cells, total Aβ (ECL sandwich immunoassay). It is filed as cell-based. Conditions: Homo sapiens, 5 hour at 37° C. Here is the method:
(§1) Secretase Reaction and Aβ Analysis in Whole Cells: HEK293 cells overexpressing APP with Swedish and London mutations were treated with the specified compounds for 5 hour at 37° C. in […] of DMEM medium containing 10% fetal bovine serum. At the end of the incubation, total Aβ, Aβ40 and Aβ42 were measured using electrochemiluminescence (ECL) based sandwich immunoassays. Total Aβ was determined using a pair of antibodies TAG-WO2 and biotin-4G8, Aβ40 was identified with antibody pairs TAG-G2-10 and biotin-4G8, while Aβ42 was identified with TAG-G2-11 and biotin-4G8. The ECL signal was measured using Sector Imager 2400 (Meso Scale Discovery).

The subject of experiment [2] is Aβ42 in HEK293 cells overexpressing APP with Swedish and London mutations. Nature of the experiment: Secretase reaction and Aβ analysis in whole cells, Aβ42 (ECL sandwich immunoassay). Type of experiment: cell-based. Conditions: Homo sapiens, 5 hour at 37° C. The protocol:
as §1

The term IC50 denotes the midpoint of a concentration-inhibition curve. As to `COc1cc(/C=C2\N/C(=N\CCO)N([C@H](C)c3ccc(F)cc3)C2=O)ccc1-n1cnc(C)c1` [Example B15], the IC50 in experiment [1] is 778 to 20000 nM; in experiment [2], 46 to 94 nM.
Take `COc1cc(/C=C2\N/C(=N\CCO)N(Cc3ccc(F)cc3)C2=O)ccc1-n1cnc(C)c1` [Example B4]: the IC50 in experiment [1] was 778 to 20000 nM; in experiment [2] it was 46 to 94 nM.
With `COc1cc(/C=C2\N/C(=N\CC(F)(F)F)N([C@H](C)c3ccc(F)cc3)C2=O)ccc1-n1cnc(C)c1` [Example B18], the values for the IC50 in experiment [1] and in experiment [2] were 778 to 20000 nM and 46 to 94 nM, respectively.
Consider `CC/N=C1\N/C(=C\c2ccc(-n3cnc(C)c3)c(OC)c2)C(=O)N1C(C)c1cc(F)c(F)c(F)c1` (centres unmarked) [Example B8], for which the half-maximal inhibitory concentration (IC50) in experiment [1] was 778 to 20000 nM; in experiment [2], 46 to 94 nM.
For `CCCC/N=C1\N/C(=C\c2ccc(-n3cnc(C)c3)c(OC)c2)C(=O)N1Cc1cc(F)c(F)c(F)c1` [Example B22], the IC50 was 778 to 20000 nM in experiment [1] and 46 to 94 nM in experiment [2].
The like results for `COc1cc(/C=C2\N/C(=N\CCO)N(Cc3cc(F)c(F)c(F)c3)C2=O)ccc1-n1cnc(C)c1` [Example A9u] were, in that order, 778 to 20000 nM and 46 to 94 nM.
The like results for `COc1cc(/C=C2\NC(=N)N([C@H](C)c3ccc(F)cc3)C2=O)ccc1-n1cnc(C)c1` [Example B13] were, in that order, 778 to 20000 nM and 46 to 94 nM.
For `COc1cc(/C=C2\NC(=N)N(C(C)c3cc(F)c(F)c(F)c3)C2=O)ccc1-n1cnc(C)c1` (centres unmarked) [Example B7] the same measures were 778 to 20000 nM and 46 to 94 nM.
For the molecule `COc1cc(/C=C2\N/C(=N\CC3CC3)N(Cc3cc(F)c(F)c(F)c3)C2=O)ccc1-n1cnc(C)c1` [Example A9r], the IC50 fell in the range of 778 to 20000 nM in experiment [1] and 46 to 94 nM in experiment [2].
Turning to `CC/N=C1\N/C(=C\c2ccc(-n3cnc(C)c3)c(OC)c2)C(=O)N1Cc1cc(F)c(F)c(F)c1` [Example A9t], the IC50 in experiment [1] lay within 778 to 20000 nM; in experiment [2] it was 46 to 94 nM.
For `CCCC/N=C1\N/C(=C\c2ccc(-n3cnc(C)c3)c(OC)c2)C(=O)N1[C@H](C)c1ccc(F)cc1` [Example B14] the same measures were 778 to 20000 nM and 46 to 94 nM.
For `COc1cc(/C=C2\N/C(=N\CCO)N(C(C)c3cc(F)c(F)c(F)c3)C2=O)ccc1-n1cnc(C)c1` (centres unmarked) [Example B10] the same measures were 778 to 20000 nM and 46 to 94 nM.
`CCCC/N=C1\N/C(=C\c2ccc(-n3cnc(C)c3)c(OC)c2)C(=O)N1Cc1ccc(F)cc1` [Example B5]: the IC50 was in the range of 778 to 20000 nM in experiment [1] and 46 to 94 nM in experiment [2].
As to `COc1cc(/C=C2\N/C(=N\CC3CC3)N(C(C)c3cc(F)c(F)c(F)c3)C2=O)ccc1-n1cnc(C)c1` (centres unmarked) [Example B12], the IC50 lay within 778 to 20000 nM in experiment [1] and 46 to 94 nM in experiment [2].
As for `CC/N=C1\N/C(=C\c2ccc(-n3cnc(C)c3)c(OC)c2)C(=O)N1Cc1ccc(F)cc1` [Example B2], the figures for the IC50 in experiment [1] and in experiment [2] were 778 to 20000 nM and 46 to 94 nM, respectively.
The like results for `CCCC/N=C1\N/C(=C\c2ccc(-n3cnc(C)c3)c(OC)c2)C(=O)N1C(C)c1cc(F)c(F)c(F)c1` (centres unmarked) [Example B11] were, in that order, 778 to 20000 nM and 46 to 94 nM.
The like results for `COc1cc(/C=C2\N/C(=N\CC(F)(F)F)N(Cc3cc(F)c(F)c(F)c3)C2=O)ccc1-n1cnc(C)c1` [Example B23] were, in that order, 778 to 20000 nM and 46 to 94 nM.
`COc1cc(/C=C2\N/C(=N\CC3CC3)N(Cc3ccc(F)cc3)C2=O)ccc1-n1cnc(C)c1` [Example B6]: the IC50 lay within 778 to 20000 nM in experiment [1] and 46 to 94 nM in experiment [2].
Regarding `CC/N=C1\N/C(=C\c2ccc(-n3cnc(C)c3)c(OC)c2)C(=O)N1[C@H](C)c1ccc(F)cc1` [Example A9m], the IC50 lay within 778 to 20000 nM in experiment [1] and 46 to 94 nM in experiment [2].
